{
  "source": "paper PMC6540285",
  "about": "“Evaluation of Protein Kinase Inhibitors with PLK4 Cross-Over Potential in a Pre-Clinical Model of Cancer” (International Journal of Molecular Sciences, 2019)",
  "key": {"BT-16 cells": {"test_system": "BT-16 cells", "type": "cell-based", "conditions": "BT-16, read-out: MTT: IC50 of the proliferation assay"}, "ADRBK1 (GRK2)": {"target": "ADRBK1 (GRK2) (Homo sapiens, UniProt P25098)", "sequence (P25098 whole entry)": "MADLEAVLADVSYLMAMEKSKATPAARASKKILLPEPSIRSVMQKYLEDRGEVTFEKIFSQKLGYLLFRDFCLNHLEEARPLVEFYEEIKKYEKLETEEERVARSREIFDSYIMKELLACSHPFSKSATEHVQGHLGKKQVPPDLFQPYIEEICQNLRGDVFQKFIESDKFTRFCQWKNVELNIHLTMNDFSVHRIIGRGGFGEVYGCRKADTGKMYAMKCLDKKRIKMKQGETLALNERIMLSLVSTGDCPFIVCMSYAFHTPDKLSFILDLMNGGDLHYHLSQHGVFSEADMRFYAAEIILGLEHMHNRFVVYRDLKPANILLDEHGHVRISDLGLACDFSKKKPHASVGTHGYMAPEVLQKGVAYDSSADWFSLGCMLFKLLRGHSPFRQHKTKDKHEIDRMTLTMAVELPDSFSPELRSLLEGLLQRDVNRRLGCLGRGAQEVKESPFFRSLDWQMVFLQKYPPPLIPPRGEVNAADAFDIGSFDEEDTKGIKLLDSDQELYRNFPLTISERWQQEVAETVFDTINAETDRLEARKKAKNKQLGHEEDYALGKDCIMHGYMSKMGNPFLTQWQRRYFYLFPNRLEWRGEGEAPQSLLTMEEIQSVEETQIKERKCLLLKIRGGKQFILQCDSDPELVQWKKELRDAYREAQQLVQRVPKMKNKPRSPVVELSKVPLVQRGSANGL", "experiment": "SelectScreen kinase profiling, ZLYTE", "type": "biochemical"}, "AKT1 (PKB alpha)": {"target": "AKT1 (PKB alpha) (Homo sapiens, UniProt P31749)", "experiment": "SelectScreen kinase profiling, ZLYTE", "type": "biochemical"}, "AURKC (Aurora C)": {"target": "AURKC (Aurora C) (Homo sapiens, UniProt Q9UQB9)", "experiment": "SelectScreen kinase profiling, ZLYTE", "type": "biochemical"}, "AXL R499C": {"target": "AXL R499C (Homo sapiens, UniProt P30530, R499C)", "experiment": "SelectScreen kinase profiling, LanthaScreen binding"}, "BMPR1A (ALK3)": {"target": "BMPR1A (ALK3) (Homo sapiens, UniProt P36894)", "experiment": "SelectScreen kinase profiling, LanthaScreen binding"}, "BRAF": {"target": "BRAF (Homo sapiens, UniProt P15056)", "experiment": "SelectScreen kinase profiling, ZLYTE", "type": "biochemical"}, "CDK8/cyclin C": {"target": "CDK8/cyclin C (Homo sapiens, UniProt P49336)", "experiment": "SelectScreen kinase profiling, LanthaScreen binding"}, "CDK9 (Inactive)": {"target": "CDK9 (Inactive) (Homo sapiens, UniProt P50750)", "experiment": "SelectScreen kinase profiling, LanthaScreen binding"}, "CLK1": {"target": "CLK1 (Homo sapiens, UniProt P49759)", "experiment": "SelectScreen kinase profiling, ZLYTE", "type": "biochemical", "conditions": "CLK1, 10 µM"}, "DAPK2": {"target": "DAPK2 (Homo sapiens, UniProt Q9UIK4)", "sequence (Q9UIK4 whole entry)": "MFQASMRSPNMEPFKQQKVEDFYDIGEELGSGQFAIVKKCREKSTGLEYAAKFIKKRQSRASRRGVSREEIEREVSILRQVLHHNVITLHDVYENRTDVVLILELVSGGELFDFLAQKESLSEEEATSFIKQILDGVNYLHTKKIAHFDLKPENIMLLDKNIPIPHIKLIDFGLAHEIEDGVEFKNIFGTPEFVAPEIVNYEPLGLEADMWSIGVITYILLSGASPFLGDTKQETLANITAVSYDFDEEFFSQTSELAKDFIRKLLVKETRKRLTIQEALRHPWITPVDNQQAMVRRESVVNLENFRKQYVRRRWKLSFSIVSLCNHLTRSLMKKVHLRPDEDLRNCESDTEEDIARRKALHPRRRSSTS", "experiment": "SelectScreen kinase profiling, LanthaScreen binding", "conditions": "DAPK2, 10 µM"}, "DMPK": {"target": "DMPK (Homo sapiens, UniProt Q09013)", "experiment": "SelectScreen kinase profiling, LanthaScreen binding"}, "EPHA7": {"target": "EPHA7 (Homo sapiens, UniProt Q15375)", "sequence (Q15375 28-998)": "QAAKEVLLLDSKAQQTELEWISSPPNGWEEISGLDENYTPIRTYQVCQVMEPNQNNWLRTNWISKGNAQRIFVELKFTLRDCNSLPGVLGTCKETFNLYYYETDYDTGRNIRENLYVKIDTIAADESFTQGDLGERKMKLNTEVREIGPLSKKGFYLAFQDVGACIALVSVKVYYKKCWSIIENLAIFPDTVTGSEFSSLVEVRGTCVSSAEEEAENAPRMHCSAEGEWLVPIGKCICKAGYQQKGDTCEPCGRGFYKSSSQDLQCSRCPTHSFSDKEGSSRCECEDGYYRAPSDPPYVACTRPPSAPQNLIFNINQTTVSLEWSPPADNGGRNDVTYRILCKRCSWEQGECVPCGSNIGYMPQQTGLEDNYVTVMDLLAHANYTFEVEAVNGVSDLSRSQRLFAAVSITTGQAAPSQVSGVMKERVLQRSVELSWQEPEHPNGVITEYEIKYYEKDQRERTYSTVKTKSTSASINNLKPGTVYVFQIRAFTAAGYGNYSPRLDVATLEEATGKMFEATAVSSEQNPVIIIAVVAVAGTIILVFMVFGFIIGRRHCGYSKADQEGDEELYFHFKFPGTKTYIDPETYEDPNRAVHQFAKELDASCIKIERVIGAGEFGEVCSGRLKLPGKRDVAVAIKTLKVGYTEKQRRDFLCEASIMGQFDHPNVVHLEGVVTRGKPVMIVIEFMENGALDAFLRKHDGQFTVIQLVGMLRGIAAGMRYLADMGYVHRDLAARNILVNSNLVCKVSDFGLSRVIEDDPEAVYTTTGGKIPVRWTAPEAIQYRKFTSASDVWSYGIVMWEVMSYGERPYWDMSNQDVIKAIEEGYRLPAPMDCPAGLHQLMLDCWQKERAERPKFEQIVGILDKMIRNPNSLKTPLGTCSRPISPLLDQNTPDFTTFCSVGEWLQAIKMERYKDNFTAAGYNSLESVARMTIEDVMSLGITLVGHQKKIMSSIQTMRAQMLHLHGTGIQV", "experiment": "SelectScreen kinase profiling, LanthaScreen binding", "conditions": "EPHA7, 10 µM"}, "EPHB3": {"target": "EPHB3 (Homo sapiens, UniProt P54753)", "experiment": "SelectScreen kinase profiling, ZLYTE", "type": "biochemical", "conditions": "EPHB3, 10 µM"}, "HIPK1 (Myak)": {"target": "HIPK1 (Myak) (Homo sapiens, UniProt Q86Z02)", "experiment": "SelectScreen kinase profiling, ZLYTE", "type": "biochemical"}, "HIPK4": {"target": "HIPK4 (Homo sapiens, UniProt Q8NE63)", "experiment": "SelectScreen kinase profiling, ZLYTE", "type": "biochemical", "conditions": "HIPK4, 10 µM"}, "IRAK4": {"target": "IRAK4 (Homo sapiens, UniProt Q9NWZ3)", "sequence (Q9NWZ3 whole entry)": "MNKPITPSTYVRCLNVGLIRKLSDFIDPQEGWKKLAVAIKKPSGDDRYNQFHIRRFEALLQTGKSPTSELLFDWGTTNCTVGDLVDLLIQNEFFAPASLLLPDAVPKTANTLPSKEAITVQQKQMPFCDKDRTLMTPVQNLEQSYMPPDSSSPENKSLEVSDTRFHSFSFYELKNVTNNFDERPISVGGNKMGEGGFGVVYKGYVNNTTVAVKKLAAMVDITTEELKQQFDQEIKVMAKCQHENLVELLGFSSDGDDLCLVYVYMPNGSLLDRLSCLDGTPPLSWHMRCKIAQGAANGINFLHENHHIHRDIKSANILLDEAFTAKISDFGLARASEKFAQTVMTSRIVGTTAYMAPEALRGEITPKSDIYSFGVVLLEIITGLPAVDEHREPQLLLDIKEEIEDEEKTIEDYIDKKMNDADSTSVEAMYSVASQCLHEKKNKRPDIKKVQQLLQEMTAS", "experiment": "SelectScreen kinase profiling, ZLYTE", "type": "biochemical", "conditions": "IRAK4, 10 µM"}, "KIT D816H": {"target": "KIT D816H (Homo sapiens, UniProt P10721, D816H)", "sequence (P10721 26-976 D816H)": "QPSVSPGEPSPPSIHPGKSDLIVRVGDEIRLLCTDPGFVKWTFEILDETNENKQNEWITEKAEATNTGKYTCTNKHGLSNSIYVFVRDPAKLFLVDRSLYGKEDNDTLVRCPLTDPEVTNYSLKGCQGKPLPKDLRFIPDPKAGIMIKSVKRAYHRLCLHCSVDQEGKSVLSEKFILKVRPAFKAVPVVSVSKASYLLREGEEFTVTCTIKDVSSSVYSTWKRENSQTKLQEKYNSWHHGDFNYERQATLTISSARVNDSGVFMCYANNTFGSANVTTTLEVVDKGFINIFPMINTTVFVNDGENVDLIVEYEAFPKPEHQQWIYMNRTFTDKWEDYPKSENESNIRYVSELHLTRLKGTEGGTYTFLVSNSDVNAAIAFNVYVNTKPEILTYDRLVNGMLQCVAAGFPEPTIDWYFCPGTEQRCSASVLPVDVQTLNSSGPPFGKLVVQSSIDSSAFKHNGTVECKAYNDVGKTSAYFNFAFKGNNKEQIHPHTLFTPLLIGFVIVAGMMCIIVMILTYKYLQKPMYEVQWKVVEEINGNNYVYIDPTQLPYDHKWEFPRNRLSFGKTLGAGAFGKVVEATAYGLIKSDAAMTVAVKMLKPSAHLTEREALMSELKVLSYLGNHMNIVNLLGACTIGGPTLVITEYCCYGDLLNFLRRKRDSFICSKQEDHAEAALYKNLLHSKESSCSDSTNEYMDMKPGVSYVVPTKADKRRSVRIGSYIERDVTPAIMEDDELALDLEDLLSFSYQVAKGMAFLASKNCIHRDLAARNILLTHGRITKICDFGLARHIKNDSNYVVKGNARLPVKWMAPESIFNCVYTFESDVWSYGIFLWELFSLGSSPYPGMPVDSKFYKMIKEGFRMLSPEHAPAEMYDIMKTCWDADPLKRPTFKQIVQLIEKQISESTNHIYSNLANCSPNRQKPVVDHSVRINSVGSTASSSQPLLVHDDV", "experiment": "SelectScreen kinase profiling, LanthaScreen binding"}, "KIT D816V": {"target": "KIT D816V (Homo sapiens, UniProt P10721, D816V)", "sequence (P10721 26-976 D816V)": "as the sequence (P10721 26-976 D816H) above, with H791V counted along it", "experiment": "SelectScreen kinase profiling, LanthaScreen binding"}, "[1]": {"target": "MAP2K6 (MKK6) S207E T211E (Homo sapiens, UniProt P52564, S207E/T211E)", "experiment": "SelectScreen kinase profiling, LanthaScreen binding"}, "MAPK14 (p38 alpha)": {"target": "MAPK14 (p38 alpha) (Homo sapiens, UniProt Q16539)", "experiment": "SelectScreen kinase profiling, ZLYTE", "type": "biochemical"}, "MLK4": {"target": "MLK4 (Homo sapiens, UniProt Q5TCX8)", "experiment": "SelectScreen kinase profiling, LanthaScreen binding", "conditions": "MLK4, 10 µM"}, "NEK4": {"target": "NEK4 (Homo sapiens, UniProt P51957)", "sequence (P51957 whole entry)": "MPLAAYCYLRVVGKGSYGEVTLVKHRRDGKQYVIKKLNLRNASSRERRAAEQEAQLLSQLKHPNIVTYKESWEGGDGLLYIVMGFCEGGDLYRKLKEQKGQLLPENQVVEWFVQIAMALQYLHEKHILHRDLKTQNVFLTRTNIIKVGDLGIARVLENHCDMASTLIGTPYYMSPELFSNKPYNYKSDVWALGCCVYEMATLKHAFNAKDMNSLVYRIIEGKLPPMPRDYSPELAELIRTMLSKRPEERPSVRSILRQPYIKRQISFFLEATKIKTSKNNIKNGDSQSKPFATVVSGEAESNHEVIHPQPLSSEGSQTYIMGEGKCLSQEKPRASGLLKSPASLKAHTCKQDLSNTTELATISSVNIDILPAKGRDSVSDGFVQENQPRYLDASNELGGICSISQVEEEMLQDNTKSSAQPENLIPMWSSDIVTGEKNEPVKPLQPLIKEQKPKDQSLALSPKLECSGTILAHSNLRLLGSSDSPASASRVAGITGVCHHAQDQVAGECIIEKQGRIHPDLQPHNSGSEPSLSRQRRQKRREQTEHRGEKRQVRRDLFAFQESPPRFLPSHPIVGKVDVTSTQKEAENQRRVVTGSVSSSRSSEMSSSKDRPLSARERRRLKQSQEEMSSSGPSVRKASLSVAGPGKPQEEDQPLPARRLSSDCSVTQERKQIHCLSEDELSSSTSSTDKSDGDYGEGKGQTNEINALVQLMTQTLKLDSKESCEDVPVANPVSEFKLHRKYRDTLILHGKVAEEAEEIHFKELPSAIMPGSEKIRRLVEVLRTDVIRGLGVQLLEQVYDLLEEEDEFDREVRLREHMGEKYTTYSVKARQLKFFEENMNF", "experiment": "SelectScreen kinase profiling, ZLYTE", "type": "biochemical", "conditions": "NEK4, 10 µM"}, "PASK": {"target": "PASK (Homo sapiens, UniProt Q96RG2)", "experiment": "SelectScreen kinase profiling, ZLYTE", "type": "biochemical"}, "PDGFRA D842V": {"target": "PDGFRA D842V (Homo sapiens, UniProt P16234, D842V)", "experiment": "SelectScreen kinase profiling, ZLYTE", "type": "biochemical"}, "PEAK1": {"target": "PEAK1 (Homo sapiens, UniProt Q9H792)", "experiment": "SelectScreen kinase profiling, ZLYTE", "type": "biochemical", "conditions": "PEAK1, 10 µM"}, "PIP5K1B": {"target": "PIP5K1B (Homo sapiens, UniProt O14986)", "experiment": "SelectScreen kinase profiling, Adapta", "type": "biochemical"}, "PRKCI (PKC iota)": {"target": "PRKCI (PKC iota) (Homo sapiens, UniProt P41743)", "experiment": "SelectScreen kinase profiling, ZLYTE", "type": "biochemical"}, "PTK2B (FAK2)": {"target": "PTK2B (FAK2) (Homo sapiens, UniProt Q14289)", "experiment": "SelectScreen kinase profiling, ZLYTE", "type": "biochemical"}, "STK38 (NDR)": {"target": "STK38 (NDR) (Homo sapiens, UniProt Q15208)", "experiment": "SelectScreen kinase profiling, LanthaScreen binding"}, "YES1": {"target": "YES1 (Homo sapiens, UniProt P07947)", "sequence (P07947 whole entry)": "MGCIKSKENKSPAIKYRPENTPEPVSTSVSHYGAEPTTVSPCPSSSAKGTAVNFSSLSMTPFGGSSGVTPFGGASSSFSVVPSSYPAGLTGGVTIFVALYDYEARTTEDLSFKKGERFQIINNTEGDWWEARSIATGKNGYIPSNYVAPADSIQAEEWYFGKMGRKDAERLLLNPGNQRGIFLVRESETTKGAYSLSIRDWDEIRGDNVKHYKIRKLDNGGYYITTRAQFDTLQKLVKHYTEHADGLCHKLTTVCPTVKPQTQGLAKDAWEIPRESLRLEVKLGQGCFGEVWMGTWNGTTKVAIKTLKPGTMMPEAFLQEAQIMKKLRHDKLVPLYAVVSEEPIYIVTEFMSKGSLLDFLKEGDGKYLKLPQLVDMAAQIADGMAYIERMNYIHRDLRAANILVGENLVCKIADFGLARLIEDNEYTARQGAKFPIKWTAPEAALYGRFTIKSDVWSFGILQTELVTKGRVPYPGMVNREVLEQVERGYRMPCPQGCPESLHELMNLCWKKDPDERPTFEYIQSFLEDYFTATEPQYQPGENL", "experiment": "SelectScreen kinase profiling, ZLYTE", "type": "biochemical", "conditions": "YES1, 10 µM"}},
  "data": [
    {"smiles": "O=C(c1ccc(/C=C/c2n[nH]c3ccccc23)cc1)N1CCNCC1", "note": "[KW-2449]", "values": [
      {"measurement": "IC50", "setting": "BT-16 cells", "value": "> 10", "unit": "µM"},
      {"measurement": "inhibition at 10 µM", "setting": "ADRBK1 (GRK2)", "value": 38, "unit": "%"},
      {"measurement": "inhibition at 10 µM", "setting": "AKT1 (PKB alpha)", "value": 24, "unit": "%"},
      {"measurement": "inhibition at 10 µM", "setting": "AURKC (Aurora C)", "value": 98, "unit": "%"},
      {"measurement": "inhibition at 10 µM", "setting": "AXL R499C", "value": 45, "unit": "%"},
      {"measurement": "inhibition at 10 µM", "setting": "BMPR1A (ALK3)", "value": 98, "unit": "%"},
      {"measurement": "inhibition at 10 µM", "setting": "BRAF", "value": 67, "unit": "%"},
      {"measurement": "inhibition at 10 µM", "setting": "CDK8/cyclin C", "value": 38, "unit": "%"},
      {"measurement": "inhibition at 10 µM", "setting": "CDK9 (Inactive)", "value": 2, "unit": "%"},
      {"measurement": "inhibition at 10 µM", "setting": "CLK1", "value": 99, "unit": "%"},
      {"measurement": "inhibition at 10 µM", "setting": "DAPK2", "value": 64, "unit": "%"},
      {"measurement": "inhibition at 10 µM", "setting": "DMPK", "value": 77, "unit": "%"},
      {"measurement": "inhibition at 10 µM", "setting": "EPHA7", "value": 66, "unit": "%"},
      {"measurement": "inhibition at 10 µM", "setting": "EPHB3", "value": 21, "unit": "%"},
      {"measurement": "inhibition at 10 µM", "setting": "HIPK1 (Myak)", "value": 70, "unit": "%"},
      {"measurement": "inhibition at 10 µM", "setting": "HIPK4", "value": 85, "unit": "%"},
      {"measurement": "inhibition at 10 µM", "setting": "IRAK4", "value": 77, "unit": "%"},
      {"measurement": "inhibition at 10 µM", "setting": "KIT D816H", "value": 42, "unit": "%"},
      {"measurement": "inhibition at 10 µM", "setting": "KIT D816V", "value": 40, "unit": "%"},
      {"measurement": "inhibition at 10 µM", "setting": "[1]", "value": 82, "unit": "%"},
      {"measurement": "inhibition at 10 µM", "setting": "MAPK14 (p38 alpha)", "value": 33, "unit": "%"},
      {"measurement": "inhibition at 10 µM", "setting": "MLK4", "value": 17, "unit": "%"},
      {"measurement": "inhibition at 10 µM", "setting": "NEK4", "value": 96, "unit": "%"},
      {"measurement": "inhibition at 10 µM", "setting": "PASK", "value": 10, "unit": "%"},
      {"measurement": "inhibition at 10 µM", "setting": "PDGFRA D842V", "value": 98, "unit": "%"},
      {"measurement": "inhibition at 10 µM", "setting": "PEAK1", "value": 91, "unit": "%"},
      {"measurement": "inhibition at 10 µM", "setting": "PIP5K1B", "value": 32, "unit": "%"},
      {"measurement": "inhibition at 10 µM", "setting": "PRKCI (PKC iota)", "value": 7, "unit": "%"},
      {"measurement": "inhibition at 10 µM", "setting": "PTK2B (FAK2)", "value": 96, "unit": "%"},
      {"measurement": "inhibition at 10 µM", "setting": "STK38 (NDR)", "value": 85, "unit": "%"},
      {"measurement": "inhibition at 10 µM", "setting": "YES1", "value": 95, "unit": "%"}
    ]}
  ]
}
